Experimental data from PMC5761851, “Application of a phenotypic drug discovery strategy to identify biological and chemical starting points for inhibition of TSLP production in lung epithelial cells” (PLoS ONE, 2018).
Values joined by “and” are separate entries in the source; they are usually repeats but may differ in a detail not shown here. Equal values may be shown once. Read-outs that look alike come from different tables or passages of the source.

What was measured:
[1] = molecular target: T1, CysLT1 (LTD4) (Homo sapiens, UniProt Q9Y271); assay: BioPrint panel: CysLT1 (LTD4) (h) (agonist); format: binding; conditions: 1 micromolar, read-out: percentage of inhibition of activity
T1 construct: purchased Eurofins Pharma Discovery Services (KinaseProfiler; Cerep BioPrint panel)
Source text: (§1) Supplement pone.0189247.s004.xlsx, sheet "Bioprint Selectivity Panel" | column: %

[2] = molecular target: T2, alpha 1A (Homo sapiens, UniProt P35348); assay: BioPrint panel: alpha 1A (h) (antagonist); format: binding; conditions: 1 micromolar, read-out: percentage of inhibition of activity
T2 construct: purchased Eurofins Pharma Discovery Services (KinaseProfiler; Cerep BioPrint panel)
Source text: as §1

[3] = molecular target: T3, EP2 (Homo sapiens, UniProt P43116); assay: BioPrint panel: EP2 (h) (agonist); format: binding; conditions: 1 micromolar, read-out: percentage of inhibition of activity
T3 construct: purchased Eurofins Pharma Discovery Services (KinaseProfiler; Cerep BioPrint panel)
Source text: as §1

[4] = molecular target: T4, ERK2 (P42mapk) (Homo sapiens, UniProt P28482); assay: BioPrint panel: ERK2 (h) (P42mapk); format: biochemical; conditions: 1 micromolar, read-out: percentage of inhibition of activity
T4 construct: purchased Eurofins Pharma Discovery Services (KinaseProfiler; Cerep BioPrint panel)
Source text: as §1

[5] = molecular target: T5, MCH1 (Homo sapiens, UniProt Q99705); assay: BioPrint panel: MCH1 (h) (agonist); format: binding; conditions: 1 micromolar, read-out: percentage of inhibition of activity
T5 construct: purchased Eurofins Pharma Discovery Services (KinaseProfiler; Cerep BioPrint panel)
Source text: as §1

[6] = tested on: sigma (non-selective); assay: BioPrint panel: sigma (non-selective) (h) (agonist); format: binding, human; conditions: 1 micromolar
Source text: as §1

[7] = molecular target: T6, beta 2 (Homo sapiens, UniProt P07550); assay: BioPrint panel: beta 2 (h) (agonist); format: binding; conditions: 1 micromolar, read-out: percentage of inhibition of activity
T6 construct: purchased Eurofins Pharma Discovery Services (KinaseProfiler; Cerep BioPrint panel)
Source text: as §1

[8] = tested on: I1; assay: BioPrint panel: I1 (agonist); format: binding; conditions: 1 micromolar
Source text: as §1

[9] = tested on: BZD (central); assay: BioPrint panel: BZD (central) (agonist); format: binding; conditions: 1 micromolar
Source text: as §1

[10] = molecular target: T7, caspase-3 (Homo sapiens, UniProt P42574); assay: BioPrint panel: caspase-3 (h); format: biochemical; conditions: 1 micromolar, read-out: percentage of inhibition of activity
T7 construct: purchased Eurofins Pharma Discovery Services (KinaseProfiler; Cerep BioPrint panel)
Source text: as §1

[11] = molecular target: T8, B2 (Homo sapiens, UniProt P30411); assay: BioPrint panel: B2 (h) (agonist); format: binding; conditions: 1 micromolar, read-out: percentage of inhibition of activity
T8 construct: purchased Eurofins Pharma Discovery Services (KinaseProfiler; Cerep BioPrint panel)
Source text: as §1

[12] = molecular target: T9, beta 3 (Homo sapiens, UniProt P13945); assay: BioPrint panel: beta 3 (h) (antagonist); format: binding; conditions: 1 micromolar, read-out: percentage of inhibition of activity
T9 construct: purchased Eurofins Pharma Discovery Services (KinaseProfiler; Cerep BioPrint panel)
Source text: as §1

[13] = tested on: SKCa channel; assay: BioPrint panel: SKCa channel (antagonist); format: binding; conditions: 1 micromolar
Source text: as §1

[14] = tested on: PCP; assay: BioPrint panel: PCP (antagonist); format: binding; conditions: 1 micromolar
Source text: as §1

[15] = molecular target: T10, A2A (Homo sapiens, UniProt P29274); assay: BioPrint panel: A2A (h) (agonist); format: binding; conditions: 1 micromolar, read-out: percentage of inhibition of activity
T10 construct: purchased Eurofins Pharma Discovery Services (KinaseProfiler; Cerep BioPrint panel)
Source text: as §1

[16] = molecular target: T11, CCR2 (Homo sapiens, UniProt P41597); assay: BioPrint panel: CCR2 (h) (agonist); format: binding; conditions: 1 micromolar, read-out: percentage of inhibition of activity
T11 construct: purchased Eurofins Pharma Discovery Services (KinaseProfiler; Cerep BioPrint panel)
Source text: as §1

[17] = molecular target: T12, mu (MOP) (Homo sapiens, UniProt P35372); assay: BioPrint panel: mu (MOP) (h) (agonist); format: binding; conditions: 1 micromolar, read-out: percentage of inhibition of activity
T12 construct: purchased Eurofins Pharma Discovery Services (KinaseProfiler; Cerep BioPrint panel)
Source text: as §1

[18] = molecular target: T13, CDK2 (cycA) (Homo sapiens, UniProt P24941); assay: BioPrint panel: CDK2 (h) (cycA); format: biochemical; conditions: 1 micromolar, read-out: percentage of inhibition of activity
T13 construct: purchased Eurofins Pharma Discovery Services (KinaseProfiler; Cerep BioPrint panel)
Source text: as §1

[19] = molecular target: T14, LXRbeta (Homo sapiens, UniProt P55055); assay: BioPrint panel: LXRbeta (h) (agonist); format: binding; conditions: 1 micromolar, read-out: percentage of inhibition of activity
T14 construct: purchased Eurofins Pharma Discovery Services (KinaseProfiler; Cerep BioPrint panel)
Source text: as §1

[20] = tested on: Na+ channel (site 2); assay: BioPrint panel: Na+ channel (site 2) (antagonist); format: binding; conditions: 1 micromolar
Source text: as §1

[21] = molecular target: T15, Lyn A kinase (Homo sapiens, UniProt P07948); assay: BioPrint panel: Lyn A kinase (h); format: biochemical; conditions: 1 micromolar, read-out: percentage of inhibition of activity
T15 construct: purchased Eurofins Pharma Discovery Services (KinaseProfiler; Cerep BioPrint panel)
Source text: as §1

[22] = molecular target: T16, DNA-PK (Homo sapiens, UniProt P78527); assay: DNA-PK activity (SelectScreen); conditions: biochemical dose response, duplicate; read-out: Inhibition of indicated activity (IC50, μM): DNA-PK
T16 construct: Thermo Fisher Scientific SelectScreen (contract assay service)
Procedure: Kinase selectivity was evaluated at Eurofins Pharma Discovery Services using a selection of 125 representative kinases tested at a concentration of 10 μM in duplicate (S3 Table). IC50 values for selected activities were further characterized at 9 duplicate concentrations. DNA-PK activity was determined at the SelectScreen® Biochemical kinase Profiling Service of Thermo Fisher Scientific.

[23] = molecular target: T17, A1 (Homo sapiens, UniProt P30542); assay: BioPrint panel: A1 (h) (agonist); format: binding; conditions: 1 micromolar, read-out: percentage of inhibition of activity
T17 construct: purchased Eurofins Pharma Discovery Services (KinaseProfiler; Cerep BioPrint panel)
Source text: as §1

[24] = molecular target: T18, MT3 (QR2) (Mesocricetus auratus, UniProt A0ABM2YAB8); assay: BioPrint panel: MT3; format: binding
T18 construct: Eurofins Pharma Discovery Services (contract assay service)
T18 sequence (A0ABM2YAB8 1-231): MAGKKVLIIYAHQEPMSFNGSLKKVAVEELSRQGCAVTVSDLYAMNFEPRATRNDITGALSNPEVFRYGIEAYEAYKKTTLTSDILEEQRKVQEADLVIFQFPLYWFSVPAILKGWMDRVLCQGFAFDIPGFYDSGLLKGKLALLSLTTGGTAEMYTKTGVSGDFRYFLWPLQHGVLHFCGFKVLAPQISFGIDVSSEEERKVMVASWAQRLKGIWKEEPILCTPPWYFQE
Procedure: General selectivity profiling was performed at Eurofins Pharma Discovery Services using the BioPrint® panel and reference database. The panel included 104 binding assays (non-peptide, peptide and nuclear receptors, ion channels and amine transporters) and 41 cell based and enzyme assays (including 10 kinases, 9 proteases and 5 phosphodiesterases) (S4 Table). More than 70% were human targets. Compound 4 was tested at a concentration of 1 μM in duplicate (10 μM for P-gp and CYP enzymes). The resulting bioactivity fingerprint was compared with a database of >2,500 BioPrint marketed drugs and reference compounds. IC50 values for selected activities were further characterized at 8 concentrations in duplicate.

[25] = tested on: LAD2 cells degranulation; assay: Syk dependent LAD2 cells degranulation; format: cell-based, human
Procedure: Normal human bronchial epithelial cells (NHBE) (Lonza CC-2540,) corresponding to 2 different lots derived from 2 human healthy donors, henceforth referred to as donors #1 and #2, were purchased from Lonza, who provided the cells after obtaining permission for use in research applications by informed consent. Cells were cultured in 5% CO2 at 37°C according to the manufacturer´s instructions using Lonza´s Bronchial Epithelial Basal Medium (BEBM) (CC-3171) supplemented with Lonza´s Bronchial Epithelial Cell Growth Medium bullet kit (BEGM) (CC-4175), and grown in collagen coated T-75 and T-175 tissue culture flasks as required (Becton Dickinson 356485 and 356487). Subculturing after trypsinization and amplification was performed using Lonza´s reagent pack subculture reagents (CC-5034) following the manufacturer´s instructions. CHO-K1 and THP-1 cells were purchased from the ATCC through LGC standards (ATCC CCL-61 and TIB-202 respectively). The LAD2 cell line is a human mast cell line established at the National Institutes of Health (Bethesda, Maryland, U.S.).
Quantification of enzymatic p38 activity and p38-dependent TNF production in THP-1 cells was performed as previously described. Enzymatic Syk kinase activity assays and Syk dependent LAD2 cells degranulation assays were performed as previously described. PI3Kδ dependent pAkt phosphorylation in macrophage colony-stimulating factor (M-CSF) stimulated THP-1 cells was measured as previously described.

T5 sequence (Q99705 whole entry): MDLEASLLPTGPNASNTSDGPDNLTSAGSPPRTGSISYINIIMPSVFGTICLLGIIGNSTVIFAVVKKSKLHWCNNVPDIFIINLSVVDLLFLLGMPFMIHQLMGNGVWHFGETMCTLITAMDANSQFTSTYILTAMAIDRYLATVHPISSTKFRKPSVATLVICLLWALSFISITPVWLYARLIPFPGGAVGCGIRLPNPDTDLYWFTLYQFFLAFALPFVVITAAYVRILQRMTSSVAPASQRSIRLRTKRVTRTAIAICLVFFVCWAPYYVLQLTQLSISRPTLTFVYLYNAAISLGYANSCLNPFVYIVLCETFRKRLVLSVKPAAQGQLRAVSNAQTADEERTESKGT
T3 sequence (P43116 whole entry): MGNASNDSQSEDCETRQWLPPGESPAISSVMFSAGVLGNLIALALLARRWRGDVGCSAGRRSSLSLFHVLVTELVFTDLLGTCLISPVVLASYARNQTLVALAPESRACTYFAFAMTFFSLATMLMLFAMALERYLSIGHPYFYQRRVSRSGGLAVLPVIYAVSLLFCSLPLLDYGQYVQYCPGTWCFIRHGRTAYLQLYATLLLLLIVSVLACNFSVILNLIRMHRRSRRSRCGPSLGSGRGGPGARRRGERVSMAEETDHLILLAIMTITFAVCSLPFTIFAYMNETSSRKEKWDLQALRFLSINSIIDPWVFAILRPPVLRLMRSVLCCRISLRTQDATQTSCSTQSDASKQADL
T17 sequence (P30542 whole entry): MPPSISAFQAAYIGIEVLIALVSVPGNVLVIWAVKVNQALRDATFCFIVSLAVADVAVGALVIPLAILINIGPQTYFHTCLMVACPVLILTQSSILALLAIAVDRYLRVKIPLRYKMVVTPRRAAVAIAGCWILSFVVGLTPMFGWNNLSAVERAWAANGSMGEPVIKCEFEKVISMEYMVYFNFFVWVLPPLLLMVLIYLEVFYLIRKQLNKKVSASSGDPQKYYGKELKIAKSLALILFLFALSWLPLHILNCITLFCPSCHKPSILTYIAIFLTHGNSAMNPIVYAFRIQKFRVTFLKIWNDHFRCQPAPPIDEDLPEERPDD
T12 sequence (P35372 whole entry): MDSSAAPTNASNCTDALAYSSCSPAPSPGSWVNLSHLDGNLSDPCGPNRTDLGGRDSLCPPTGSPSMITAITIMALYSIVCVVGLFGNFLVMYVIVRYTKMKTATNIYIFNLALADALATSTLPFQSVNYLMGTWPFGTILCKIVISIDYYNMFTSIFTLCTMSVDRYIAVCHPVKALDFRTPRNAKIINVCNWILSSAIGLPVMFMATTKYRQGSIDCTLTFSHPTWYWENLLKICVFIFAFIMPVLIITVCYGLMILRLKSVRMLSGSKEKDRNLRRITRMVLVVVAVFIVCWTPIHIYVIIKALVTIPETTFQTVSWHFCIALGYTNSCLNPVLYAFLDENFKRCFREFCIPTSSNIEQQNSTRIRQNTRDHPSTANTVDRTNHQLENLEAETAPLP
T15 sequence (P07948 whole entry): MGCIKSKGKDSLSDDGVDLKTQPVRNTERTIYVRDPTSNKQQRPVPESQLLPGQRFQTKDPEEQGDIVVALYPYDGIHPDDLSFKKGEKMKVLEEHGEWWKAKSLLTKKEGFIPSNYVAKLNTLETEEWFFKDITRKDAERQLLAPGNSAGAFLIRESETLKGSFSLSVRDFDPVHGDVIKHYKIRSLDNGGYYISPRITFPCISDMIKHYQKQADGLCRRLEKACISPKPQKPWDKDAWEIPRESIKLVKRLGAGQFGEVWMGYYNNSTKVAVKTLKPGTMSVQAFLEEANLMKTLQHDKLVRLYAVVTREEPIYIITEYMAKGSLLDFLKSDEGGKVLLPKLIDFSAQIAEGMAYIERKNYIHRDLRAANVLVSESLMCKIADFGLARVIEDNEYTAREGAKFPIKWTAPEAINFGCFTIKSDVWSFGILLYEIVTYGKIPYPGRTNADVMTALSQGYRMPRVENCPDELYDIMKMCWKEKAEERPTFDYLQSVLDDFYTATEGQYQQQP
T4 sequence (P28482 whole entry): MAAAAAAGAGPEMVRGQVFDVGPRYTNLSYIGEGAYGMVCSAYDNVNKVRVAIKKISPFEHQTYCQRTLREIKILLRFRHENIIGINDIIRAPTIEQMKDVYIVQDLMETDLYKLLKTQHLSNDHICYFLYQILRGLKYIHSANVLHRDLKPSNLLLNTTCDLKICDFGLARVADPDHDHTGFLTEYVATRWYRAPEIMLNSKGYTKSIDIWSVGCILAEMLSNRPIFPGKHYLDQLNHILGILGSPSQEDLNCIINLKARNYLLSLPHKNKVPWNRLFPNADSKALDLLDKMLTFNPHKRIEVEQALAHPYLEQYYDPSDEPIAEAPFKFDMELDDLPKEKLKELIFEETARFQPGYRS
T6 sequence (P07550 whole entry): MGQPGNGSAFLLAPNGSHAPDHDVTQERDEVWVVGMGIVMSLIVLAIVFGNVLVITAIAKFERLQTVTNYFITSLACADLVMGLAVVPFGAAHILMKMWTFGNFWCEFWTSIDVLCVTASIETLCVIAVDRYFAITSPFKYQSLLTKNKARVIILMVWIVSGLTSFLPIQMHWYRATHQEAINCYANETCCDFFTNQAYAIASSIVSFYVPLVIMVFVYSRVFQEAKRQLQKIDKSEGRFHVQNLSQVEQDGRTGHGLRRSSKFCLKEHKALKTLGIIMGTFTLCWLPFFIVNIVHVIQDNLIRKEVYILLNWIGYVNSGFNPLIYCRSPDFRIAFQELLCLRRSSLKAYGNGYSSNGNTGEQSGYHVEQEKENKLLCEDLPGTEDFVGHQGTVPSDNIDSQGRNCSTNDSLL
T9 sequence (P13945 whole entry): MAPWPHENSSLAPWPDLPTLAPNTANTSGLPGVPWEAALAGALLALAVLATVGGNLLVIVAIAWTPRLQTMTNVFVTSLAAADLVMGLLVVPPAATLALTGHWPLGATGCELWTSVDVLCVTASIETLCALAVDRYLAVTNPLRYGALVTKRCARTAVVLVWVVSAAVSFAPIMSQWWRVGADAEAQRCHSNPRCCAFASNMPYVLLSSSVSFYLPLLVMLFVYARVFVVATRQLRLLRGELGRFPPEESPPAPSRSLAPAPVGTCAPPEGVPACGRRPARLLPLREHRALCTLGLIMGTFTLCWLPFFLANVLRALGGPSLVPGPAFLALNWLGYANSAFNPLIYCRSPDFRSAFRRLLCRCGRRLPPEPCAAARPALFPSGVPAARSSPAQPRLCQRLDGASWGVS
T14 sequence (P55055 whole entry): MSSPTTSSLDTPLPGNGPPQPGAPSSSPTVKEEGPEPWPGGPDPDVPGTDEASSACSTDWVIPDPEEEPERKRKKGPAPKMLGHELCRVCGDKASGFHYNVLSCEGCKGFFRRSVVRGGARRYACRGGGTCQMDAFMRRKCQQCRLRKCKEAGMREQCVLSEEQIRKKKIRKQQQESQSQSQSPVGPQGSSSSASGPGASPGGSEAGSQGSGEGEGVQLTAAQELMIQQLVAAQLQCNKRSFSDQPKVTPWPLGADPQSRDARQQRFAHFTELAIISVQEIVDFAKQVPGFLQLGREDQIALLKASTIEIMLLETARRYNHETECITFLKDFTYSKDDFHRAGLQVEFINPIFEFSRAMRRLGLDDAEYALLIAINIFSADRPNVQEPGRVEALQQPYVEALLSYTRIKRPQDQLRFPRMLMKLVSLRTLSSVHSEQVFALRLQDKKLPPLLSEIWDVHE
T10 sequence (P29274 whole entry): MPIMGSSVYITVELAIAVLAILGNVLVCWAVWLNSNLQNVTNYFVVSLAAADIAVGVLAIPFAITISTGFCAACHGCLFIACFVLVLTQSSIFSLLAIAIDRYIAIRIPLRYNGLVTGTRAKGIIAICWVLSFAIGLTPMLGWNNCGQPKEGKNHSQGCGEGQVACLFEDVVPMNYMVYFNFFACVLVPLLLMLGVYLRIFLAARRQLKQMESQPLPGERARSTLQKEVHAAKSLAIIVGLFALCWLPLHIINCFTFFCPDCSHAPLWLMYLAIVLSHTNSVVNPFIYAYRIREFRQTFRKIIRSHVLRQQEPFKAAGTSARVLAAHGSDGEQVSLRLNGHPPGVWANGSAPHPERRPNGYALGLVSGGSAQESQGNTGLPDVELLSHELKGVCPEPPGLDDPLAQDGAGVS
T7 sequence (P42574 29-175 limits assumed): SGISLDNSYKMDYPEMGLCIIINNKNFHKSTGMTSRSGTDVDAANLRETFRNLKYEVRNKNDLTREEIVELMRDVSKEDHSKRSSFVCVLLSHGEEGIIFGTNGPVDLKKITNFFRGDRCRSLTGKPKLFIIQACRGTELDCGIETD
T7 sequence (P42574 176-277 limits assumed): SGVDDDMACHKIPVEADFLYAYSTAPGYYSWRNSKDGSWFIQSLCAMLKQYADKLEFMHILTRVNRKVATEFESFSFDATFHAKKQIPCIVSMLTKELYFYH
T8 sequence (P30411 whole entry): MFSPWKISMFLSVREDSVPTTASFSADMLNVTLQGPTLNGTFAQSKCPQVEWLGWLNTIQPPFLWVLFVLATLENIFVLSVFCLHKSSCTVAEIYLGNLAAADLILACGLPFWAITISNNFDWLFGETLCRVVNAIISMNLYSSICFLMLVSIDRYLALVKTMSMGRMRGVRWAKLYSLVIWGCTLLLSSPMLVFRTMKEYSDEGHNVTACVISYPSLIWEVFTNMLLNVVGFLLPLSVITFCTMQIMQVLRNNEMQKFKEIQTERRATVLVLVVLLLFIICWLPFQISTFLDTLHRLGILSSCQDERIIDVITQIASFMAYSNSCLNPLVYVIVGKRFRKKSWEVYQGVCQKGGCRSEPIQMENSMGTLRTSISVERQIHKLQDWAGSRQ

Structure (SMILES): Cn1cc(-c2cccc(-c3nc(C(=O)NC4C5CC6CC4CC(O)(C6)C5)c(N)nc3N)c2)cn1 (stereo not shown) [compound 4]
- inhibition at 1 µM [1]: 6.1%
- inhibition at 1 µM [2]: 2.8%
- inhibition at 1 µM [3]: -23.9%
- inhibition at 1 µM [4]: 14.3%
- inhibition at 1 µM [5]: 34.6%
- percentage of inhibition of activity [6]: 5.9%
- inhibition at 1 µM [7]: 1.6%
- percentage of inhibition of activity [8]: 11.5%
- percentage of inhibition of activity [9]: -11.1%
- inhibition at 1 µM [10]: 3.9%
- inhibition at 1 µM [11]: -1%
- inhibition at 1 µM [12]: 8.1%
- percentage of inhibition of activity [13]: -10.2%
- percentage of inhibition of activity [14]: -2.1%
- inhibition at 1 µM [15]: -5.3%
- inhibition at 1 µM [16]: 2.6%
- inhibition at 1 µM [17]: -2.6%
- inhibition at 1 µM [18]: -7.9%
- inhibition at 1 µM [19]: 4.1%
- percentage of inhibition of activity [20]: 29.7%
- inhibition at 1 µM [21]: 0.1%
- IC50 [22]: 0.348 µM
- inhibition at 1 µM [23]: -11.2%
- inhibition at 1 µM ([24]; 1 μM, read-out: inhibition of MT3): 71%
- inhibition at 1 µM ([24]; 1 micromolar, MT3 (ML2) (agonist), read-out: percentage of inhibition of activity): 71.9%
- IC50 ([24]; dose response, duplicate, read-out: Inhibition of indicated activity (IC50, μM): MT3 (QR2)): 0.4 µM

Structure (SMILES): CS(=O)(=O)N1CCN(c2ccc(Nc3ncc(C(N)=O)c(NC4CC4)n3)cc2)CC1 [compound 5]
- IC50 ([25]; Homo sapiens, LAD2, geometric mean, read-out: Activity in reference cell based assay (IC50, μM) (95% CI) LAD2 cells degranulation): 0.019 µM
- IC50 ([25]; individual values, read-out: Cellular activity (IC50, mM) LAD2 cells degranulation): 0.0341 µM and 0.015 µM and 0.0149 µM
